Measured values reported in publication PMC3951269 (Nature, 2013).

How the values were obtained:
CPTP (GLTPD1) [1] = biological target: T1, CPTP (GLTPD1) (Homo sapiens, UniProt Q5TA50); assay: X-ray crystal structure; format: binding; settings: sphingosine-in mode site as C1P
T1 sequence (Q5TA50 1-214): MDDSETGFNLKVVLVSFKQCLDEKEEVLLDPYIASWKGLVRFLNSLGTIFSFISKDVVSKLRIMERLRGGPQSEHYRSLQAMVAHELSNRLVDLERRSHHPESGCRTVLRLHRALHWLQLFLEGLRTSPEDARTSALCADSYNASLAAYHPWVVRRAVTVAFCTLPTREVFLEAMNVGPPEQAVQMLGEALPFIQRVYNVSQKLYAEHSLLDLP

CPTP (GLTPD1) [2] = biological target: T1, CPTP (GLTPD1); assay: FRET lipid transfer between POPC vesicles; format: biochemical; settings: 37 °C; labelled compound

| X-ray crystal structure (CPTP (GLTPD1) [1]) | transfer rate (CPTP (GLTPD1) [2]) | Compound |
| --- | --- | --- |
| PA occupies the same binding site | – | CCCCCCCCCCCC(=O)OC[C@H](COP(=O)(O)O)OC(=O)CCCCCCCCCCC [di12:0-PA] |
| – | ~ 4 C1P molecules/min/protein | CCCCCCCCCCCCC/C=C/[C@@H](O)[C@H](COP(=O)(O)O)NC(=O)CCCCCCCCC/C=C/c1c2ccccc2cc2ccccc12 [AV-C1P, anthrylvinyl-C1P] |
